Data reported in PubChem BioAssay (NCI).
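Briefly, cells in 96-well plates were exposed to five compound concentrations for 48 h, and endpoints were estimated by linear interpolation. Definition used: TGI = concentration required for complete inhibition of growth.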

Key:
Experiment in all cases: DTP human tumour cell line panel, 48 h
MOLT-4 leukemia = tested on: MOLT-4 leukemia
SNB-75 CNS = tested on: SNB-75 CNS
UACC-62 melanoma = tested on: UACC-62 melanoma
HCT-116 colon = tested on: HCT-116 colon
PC-3 prostate = tested on: PC-3 prostate
A498 renal = tested on: A498 renal
OVCAR-4 ovarian = tested on: OVCAR-4 ovarian
SF-295 CNS = tested on: SF-295 CNS
CAKI-1 renal = tested on: CAKI-1 renal
OVCAR-8 ovarian = tested on: OVCAR-8 ovarian

Compound	TGI (MOLT-4 leukemia)	TGI (SNB-75 CNS)	TGI (UACC-62 melanoma)	TGI (HCT-116 colon)	TGI (PC-3 prostate)	TGI (A498 renal)	TGI (OVCAR-4 ovarian)	TGI (SF-295 CNS)	TGI (CAKI-1 renal)	TGI (OVCAR-8 ovarian)
CC(=O)NC1C(OCc2ccccc2)OC(CO)C(O)C1OCC(=O)N[C@@H](C)C(=O)N[C@H](CCC(=O)NCCCCNc1c2ccccc2nc2cccc([N+](=O)[O-])c12)C(N)=O (stereo not given in full)	> 100 µM	4.69 µM	3.13 µM	10 µM	9.44 µM	5.9 µM	2.85 µM	37.3 µM	> 23.2 µM	5.03 µM
C=C1CC(Cn2cc(Br)c(=O)[nH]c2=O)(c2ccc(Br)cc2)OC1=O (stereo not given)	6.13 µM	26.7 µM	9.46 µM	2.75 µM	12.8 µM	10.2 µM	4.63 µM	31 µM	7.13 µM	> 100 µM
CC(=O)NCC1OC2COC(c3ccccc3)OC2C2N=C(c3ccccc3)OC12 (stereo not given)	> 100 µM	> 100 µM	> 100 µM	> 100 µM	> 100 µM	> 100 µM	> 100 µM	> 100 µM	> 100 µM	> 100 µM
C=C(C)C(=O)O[C@H]1CC2(CO)O[C@@H]2CC/C(COC(C)=O)=C/C2OC(=O)C(=C)[C@@H]21 (stereo not given in full)	29.8 µM	> 100 µM	> 100 µM	39.4 µM	> 100 µM	> 100 µM	> 100 µM	> 100 µM	> 58.8 µM	49.8 µM
Nc1cc2ncnc(Nc3cccc(Br)c3)c2cn1	> 100 µM	> 100 µM	> 100 µM	> 100 µM	> 100 µM	36.1 µM	> 100 µM	71.8 µM	> 100 µM	> 100 µM
Cc1cc2nc3c(N)nn(CCN(C)C)c3nc2cc1C	> 100 µM	97.9 µM	> 100 µM	> 100 µM	> 100 µM	> 100 µM	> 100 µM	> 100 µM	> 100 µM	> 100 µM
CC(=O)Nc1nc(C)c(S(=O)(=O)NC(=O)N2c3ccccc3CCc3ccccc32)s1	> 100 µM	> 100 µM	> 100 µM	> 100 µM	> 100 µM	> 100 µM	> 100 µM	> 100 µM	> 100 µM	> 100 µM
O=c1[nH]nc(N/N=C\c2ccc(Cl)cc2)c2ccccc12	> 100 µM	47.6 µM	39.4 µM	53.2 µM	40.2 µM	51.2 µM	> 100 µM	34 µM	34 µM	54.8 µM
O=C(c1ccccc1)c1ccc2nc(-c3c(Cl)c(Cl)c(Cl)c(Cl)c3C(=O)Nc3ccco3)[nH]c2c1	> 100 µM	> 100 µM	> 100 µM	> 100 µM	> 100 µM	92.2 µM	> 100 µM	> 100 µM	> 100 µM	> 100 µM
CCn1c(SCc2nnc(Nc3ccccc3)s2)nc2ccccc2c1=O	> 100 µM	14.2 µM	11.9 µM	3.97 µM	> 67.4 µM	3.92 µM	5 µM	6.87 µM	9.04 µM	5.09 µM
CCOC(=O)c1nc2ccccc2nc1Nc1ccc(F)cc1	> 100 µM	18.5 µM	> 100 µM	> 69.3 µM	> 100 µM	58.5 µM	> 100 µM	28.9 µM	> 100 µM	32 µM
C/C=C\C(CC(=O)NCCc1c[nH]c2ccccc12)CC(=O)OC (stereo not given)	> 100 µM	> 100 µM	> 100 µM	> 100 µM	> 100 µM	> 100 µM	> 100 µM	> 100 µM	> 100 µM	> 100 µM
CCCC(CC)c1cc(O)c(O)cc1C(CC)CCC (stereo not given)	> 10 µM	> 10 µM	> 10 µM	> 10 µM	> 10 µM	> 10 µM	> 10 µM	> 10 µM	> 10 µM	> 10 µM
CC(=O)OCC1(CNc2nc(N)ncc2C#N)CC(CCc2ccccc2)C1 (stereo not given)	> 100 µM	> 100 µM	> 100 µM	> 100 µM	> 100 µM	> 100 µM	> 100 µM	> 100 µM	> 100 µM	> 100 µM
CCOC(=O)COC1=Nc2cc(OC)c(OC)c3nc(Cl)cc(c23)C1=O	5.91 µM	5.87 µM	3.17 µM	3.1 µM	3.45 µM	23.5 µM	3.14 µM	24 µM	3.58 µM	9.8 µM
COC(CC1(CCNc2ccccc2)C(=O)N(COCC[Si](C)(C)C)c2ccccc21)OC (stereo not given)	> 100 µM	14.3 µM	29.8 µM	32.5 µM	27.8 µM	47.5 µM	28.6 µM	32 µM	> 62.2 µM	35.1 µM
COCCN(C(=O)c1ccccc1)C1CCC(=O)c2[nH]c3ccccc3c21 (stereo not given)	26.9 µM	16.5 µM	36.5 µM	26.5 µM	12.8 µM	33.4 µM	22.2 µM	> 56.8 µM	10.9 µM	21.3 µM
